Results as given in ChEMBL document CHEMBL5537118, “Synthesis of cinnamoyl tethered indoline derivatives with anti-inflammatory and antioxidant activities” (Eur J Med Chem, 2024).
The source made the active and inactive calls. The calls are words filed in the database; no cut-off is given here.

Key:
Mus musculus [1] = test: Antiinflammatory activity in carrageenan-induced Kunming mouse model of paw edema assessed as paw volume at 1 mg/kg, ip pretreated for 1 hr followed by carrageenan administration and measured after 3 hrs by digital plethysmometer (reference value: 0.377 +/- 0.018 mL); type: functional; conditions: time 4 hrs
Mus musculus [2] = test: Antiinflammatory activity in carrageenan-induced Kunming mouse model of paw edema assessed as paw volume at 10 mg/kg, ip pretreated for 1 hr followed by carrageenan administration and measured after 1 hr by digital plethysmometer (reference value: 0.395 +/- 0.017 mL); type: functional; conditions: time 2 hrs
RAW264.7 [3] = test: Antioxidant activity in H2O2-stimulated mouse RAW264.7 cells assessed as protection against cell damage at 2 to 5 uM pretreated for 30 mins followed by H2O2 stimulation and measured after 4 hrs by MTT assay; type: functional, cell-based; conditions: dose 2-5 µM, time 4.5 hrs
RAW264.7 [4] = test: Antiinflammatory activity in LPS-induced mouse RAW264.7 cells assessed as inhibition of NO production at 2 to 10 uM pretreated for 1 hr followed by LPS addition and measured after 24 hrs by griess reagent based assay; type: functional, cell-based; conditions: dose 2-10 µM, time 25.0 hrs
RAW264.7 [5] = test: Inhibition of ROS burst in rotenone-stimulated mouse RAW264.7 cells assessed as reduction in ROS level at 0.5 to 2 uM pretreated for 30 mins followed by rotenone addition and measured after 4 hrs by DCFH-DA staining based flow cytometry analysis; type: functional, cell-based; conditions: dose 0.5-2 µM, time 4.5 hrs
RAW264.7 [6] = test: Inhibition of ROS burst in rotenone-stimulated mouse RAW264.7 cells assessed as reduction in ROS level at 1 uM pretreated for 30 mins followed by rotenone addition and measured after 4 hrs by DCFH-DA staining based flow cytometry analysis relative to control; type: functional; conditions: time 4.5 hrs
RAW264.7 [7] = test: Antiinflammatory activity in LPS-induced mouse RAW264.7 cells assessed as reduction in IL-6 level incubated for 24 hrs by ELISA; type: functional, cell-based
RAW264.7 [8] = test: Inhibition of NF-kappaB activation in LPS-induced mouse RAW264.7 cells assessed as inhibition of IkappaBalpha phosphorylation by measuring reduction in p-IkappaBalpha/IkappaBalpha expression at 0.5 to 2 uM by Western blot analysis; type: cell-based; conditions: dose 0.5-2 µM
RAW264.7 [9] = test: Inhibition of NF-kappaB activation in LPS-induced mouse RAW264.7 cells assessed as inhibition of p65 phosphorylation by measuring reduction in p-p65/p65 expression at 0.5 to 2 uM by Western blot analysis; type: cell-based; conditions: dose 0.5-2 µM
Mus musculus [10] = test: Antiinflammatory activity in carrageenan-induced Kunming mouse model of paw edema assessed as paw volume at 10 mg/kg, ip pretreated for 1 hr followed by carrageenan administration and measured immediately by digital plethysmometer (reference value: 0.116 +/- 0.042 mL); type: functional
Mus musculus [11] = test: Antiinflammatory activity in carrageenan-induced Kunming mouse model of paw edema assessed as paw volume at 30 mg/kg, ip pretreated for 1 hr followed by carrageenan administration and measured immediately by digital plethysmometer (reference value: 0.116 +/- 0.042 mL); type: functional
Mus musculus [12] = test: Antiinflammatory activity in carrageenan-induced Kunming mouse model of paw edema assessed as paw volume at 1 mg/kg, ip pretreated for 1 hr followed by carrageenan administration and measured after 1 hr by digital plethysmometer (reference value: 0.395 +/- 0.017 mL); type: functional; conditions: time 2 hrs
Mus musculus [13] = test: Antiinflammatory activity in carrageenan-induced Kunming mouse model of paw edema assessed as paw volume at 10 mg/kg, ip pretreated for 1 hr followed by carrageenan administration and measured after 3 hrs by digital plethysmometer (reference value: 0.377 +/- 0.018 mL); type: functional; conditions: time 4 hrs
Mus musculus [14] = test: Antiinflammatory activity in carrageenan-induced Kunming mouse model of paw edema assessed as paw volume at 30 mg/kg, ip pretreated for 1 hr followed by carrageenan administration and measured after 3 hrs by digital plethysmometer (reference value: 0.377 +/- 0.018 mL); type: functional; conditions: time 4 hrs
Mus musculus [15] = test: Antiinflammatory activity in carrageenan-induced Kunming mouse model of paw edema assessed as paw volume at 1 mg/kg, ip pretreated for 1 hr followed by carrageenan administration and measured after 5 hrs by digital plethysmometer (reference value: 0.362 +/- 0.016 mL); type: functional; conditions: time 6 hrs
Mus musculus [16] = test: Antiinflammatory activity in carrageenan-induced Kunming mouse model of paw edema assessed as paw volume at 30 mg/kg, ip pretreated for 1 hr followed by carrageenan administration and measured after 5 hrs by digital plethysmometer (reference value: 0.362 +/- 0.016 mL); type: functional; conditions: time 6 hrs
Mus musculus [17] = test: Antiinflammatory activity in carrageenan-induced Kunming mouse model of paw edema assessed as edema inhibition at 1 mg/kg, ip pretreated for 1 hr followed by carrageenan administration and measured after 1 hr relative to control; type: functional; conditions: time 2 hrs
Mus musculus [18] = test: Antiinflammatory activity in carrageenan-induced Kunming mouse model of paw edema assessed as edema inhibition at 10 mg/kg, ip pretreated for 1 hr followed by carrageenan administration and measured after 1 hr relative to control; type: functional; conditions: time 2 hrs
Mus musculus [19] = test: Antiinflammatory activity in carrageenan-induced Kunming mouse model of paw edema assessed as edema inhibition at 30 mg/kg, ip pretreated for 1 hr followed by carrageenan administration and measured after 1 hr relative to control; type: functional; conditions: time 2 hrs
Mus musculus [20] = test: Antiinflammatory activity in carrageenan-induced Kunming mouse model of paw edema assessed as edema inhibition at 1 mg/kg, ip pretreated for 1 hr followed by carrageenan administration and measured after 3 hrs relative to control; type: functional; conditions: time 4 hrs
Mus musculus [21] = test: Antiinflammatory activity in carrageenan-induced Kunming mouse model of paw edema assessed as edema inhibition at 30 mg/kg, ip pretreated for 1 hr followed by carrageenan administration and measured after 3 hrs relative to control; type: functional; conditions: time 4 hrs
Mus musculus [22] = test: Antiinflammatory activity in carrageenan-induced Kunming mouse model of paw edema assessed as edema inhibition at 1 mg/kg, ip pretreated for 1 hr followed by carrageenan administration and measured after 5 hrs relative to control; type: functional; conditions: time 6 hrs
Mus musculus [23] = test: Antiinflammatory activity in carrageenan-induced Kunming mouse model of paw edema assessed as paw volume at 30 mg/kg, IG pretreated for 1 hr followed by carrageenan administration and measured after 1 hr by digital plethysmometer (reference value: 0.407 +/- 0.023 mL); type: functional; conditions: time 2 hrs
Mus musculus [24] = test: Antiinflammatory activity in carrageenan-induced Kunming mouse model of paw edema assessed as edema inhibition at 30 mg/kg, IG pretreated for 1 hr followed by carrageenan administration and measured after 3 hrs relative to control; type: functional; conditions: po, time 4 hrs
Mus musculus [25] = test: Antiinflammatory activity in carrageenan-induced Kunming mouse model of paw edema assessed as edema inhibition at 30 mg/kg, IG pretreated for 1 hr followed by carrageenan administration and measured after 5 hrs relative to control; type: functional; conditions: po, time 6 hrs
Mus musculus [26] = test: Antioxidant activity in carrageenan-induced Kunming mouse model of paw edema assessed as reduction in MDA level in paw tissue at 1 to 30 mg/kg, ip pretreated for 1 hr followed by carrageenan administration and measured after 5 hrs by ELISA; type: functional, organism-based; conditions: dose 1-30 mg/kg, time 6.0 hrs
Mus musculus [27] = test: Antioxidant activity in carrageenan-induced Kunming mouse model of paw edema assessed as increase in SOD activity in paw tissue at 1 to 30 mg/kg, ip pretreated for 1 hr followed by carrageenan administration and measured after 5 hrs by ELISA; type: functional, organism-based; conditions: dose 1-30 mg/kg, time 6.0 hrs

In the case of O=C(/C=C/c1ccc(O)c(O)c1)NCCCN1CCc2cc(Cl)ccc21, the Activity (Mus musculus [1]) is reported as 0.267 mL, the Activity (Mus musculus [2]) is reported as 0.189 mL and the Activity (RAW264.7 [3]) is reported as “Active”. The Activity (RAW264.7 [4]) was “Active”, the inhibition (RAW264.7 [5]) was “Active” and the inhibition at 1 µM (RAW264.7 [6]) was ~100%. For the same compound, the Activity (RAW264.7 [7]) was “Dose-Dependent Effect”, the IC50 (RAW264.7 [7]; RAW264.7, 24 h) was 1.73 µM and the inhibition (RAW264.7 [8]) was “Active”. For the same compound, the inhibition (RAW264.7 [9]) was “Active”, the Activity (Mus musculus [10]) was 0.128 mL and the Activity (Mus musculus [11]) was 0.131 mL. For the same compound, the Activity (Mus musculus [12]) was 0.32 mL, the Activity (Mus musculus [13]) was 0.175 mL and the Activity (Mus musculus [14]) was 0.143 mL. For the same compound, the Activity (Mus musculus [15]) was 0.225 mL, the Activity (Mus musculus [16]) was 0.137 mL and the inhibition in vivo at 1 mg/kg (Mus musculus [17]) was 27.6%. The inhibition in vivo at 10 mg/kg (Mus musculus [18]) was 75.7%, the inhibition in vivo at 30 mg/kg (Mus musculus [19]) was 87.1% and the inhibition in vivo at 1 mg/kg (Mus musculus [20]) was 45.1%. It also gave an inhibition in vivo at 30 mg/kg (Mus musculus [21]) of 95.9%, an inhibition in vivo at 1 mg/kg (Mus musculus [22]) of 57.3% and an Activity (Mus musculus [23]) of 0.339 mL. The inhibition in vivo at 30 mg/kg (Mus musculus [24]) was 50%, the inhibition in vivo at 30 mg/kg (Mus musculus [25]) was 58.1% and the Activity (Mus musculus [26]) was “Active”. The Activity (Mus musculus [27]) was “Active”.
